Target: T1, B2 bradykinin receptor (Cavia porcellus, UniProt O70526)
T1 sequence (O70526 whole entry): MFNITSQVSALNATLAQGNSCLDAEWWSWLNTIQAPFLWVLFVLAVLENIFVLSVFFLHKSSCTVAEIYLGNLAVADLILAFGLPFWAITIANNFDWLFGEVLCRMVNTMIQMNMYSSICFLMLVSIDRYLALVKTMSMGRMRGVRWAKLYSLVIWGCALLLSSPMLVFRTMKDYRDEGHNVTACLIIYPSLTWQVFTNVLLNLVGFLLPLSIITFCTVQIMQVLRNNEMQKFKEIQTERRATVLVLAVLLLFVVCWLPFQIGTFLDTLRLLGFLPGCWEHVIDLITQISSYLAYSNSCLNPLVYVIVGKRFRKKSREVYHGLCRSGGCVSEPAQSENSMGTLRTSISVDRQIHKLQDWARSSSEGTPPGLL
Assay: In vitro antagonistic activity for Bradykinin receptor B2 by guinea pig ileal membrane receptor assay.
Format: functional

NC(N)=NCCC[C@@H](N)C(=O)N[C@@H](CCCN=C(N)N)C(=O)N1CCC[C@H]1C(=O)N1C[C@H](O)C[C@H]1C(=O)NCC(=O)N[C@@H](Cc1cccs1)C(=O)N[C@@H](CO)C(=O)N1Cc2ccccc2C[C@@H]1C(=O)N1[C@H](C(=O)N[C@@H](CCCN=C(N)N)C(=O)O)C[C@@H]2CCCC[C@@H]21 [ICATIBANT]
IC50: 1.07 nM
